Test results: patent publication US11136297B2, “Compositions and methods for treating cancer” (THE REGENTS OF THE UNIVERSITY OF CALIFORNIA, priority 2016, dated 2021)
“Also recorded” adds a separate entry of the source.

Legend:
[1] = biological target: T1, H-Ras(M72C) GppNHp binding to Raf-1-RBD (Homo sapiens, UniProt P01112, M72C); experiment: Raf-1-RBD pull-down of labeled H-Ras(M72C) GppNHp; conditions: H-Ras(M72C) GppNHp pre-labeled with compound; various concentrations of H-Ras
T1 construct: and H-Ras (residues 1-166) were transformed into Escherichia coli; His6; made in house; host or cells: Escherichia coli BL21(DE3)
Method: FIGS. 29A-29D. […] FIG. 29D: Reconstruction of Ras cycle is achieved by inducing nucleotide exchange of 100 nM Ras by various concentrations of SOS^cat for either 1 or 2 hours and subsequent pull-down by Raf-1-RBD.
FIGS. 33A-33D. […] In FIG. 33B) through FIG. 33D), normalized pull-down signals are shown below the blot. S. E. M for each signal, number of replicates, and […] for each comparative Standard T-Test are summarized herein (see Tables 33B, 33C, and 33D). […] Comparative statistics were done for normalized pull-down signals between protein constructs of the same condition (i.e. in FIG. 33B) and FIG. 33C), column 1 for unlabeled and 1 for labeled protein, 2 for unlabeled and 2 for labeled, and so on were statistically compared, and in FIG. 33D) only the +SOS^cat and +GppNHp lanes were compared across protein constructs). FIG. 33A) Cartoon representation of pull down protocol. […] Reported values are quantified pull-down signals normalized to input. FIG. 33B) Cartoon representation of pull down protocol. […] FIG. 33C) Cartoon representation of pull down protocol. […] FIG. 33D) Cartoon representation of pull down protocol. Ras activation is achieved by catalyzing nucleotide exchange by SOS^cat and indirectly reading out activated Ras by subsequent pull down by Raf-1-RBD.

[2] = biological target: T2, H-Ras(M72C) GDP binding to SOScat (Homo sapiens, UniProt P01112, M72C); experiment: SOScat pull-down of H-Ras(M72C) GDP; conditions: SOScat pull-down of H-Ras(M72C) GDP at various concentrations of H-Ras
T2 construct: and H-Ras (residues 1-166) were transformed into Escherichia coli; His6; made in house; host or cells: Escherichia coli BL21(DE3)

H-Ras(M72C) GDP = H-Ras(M72C) GDP (Homo sapiens, UniProt P01112, M72C); experiment: Intrinsic nucleotide affinity by EDTA catalyzed nucleotide exchange (Raf-1-RBD pull down readout); type: biochemical; design: and H-Ras (residues 1-166) were transformed into Escherichia coli; His6; made in house; host or cells: Escherichia coli BL21(DE3)
Method: Intrinsic Nucleotide Affinity by EDTA Catalyzed Nucleotide Exchange. For each EDTA catalyzed reaction, the total reaction volume was 500 μL. Each reaction had the following final composition: 100 nM Ras GDP (1 μg, 5 μL of 0.2 mg/mL Ras stock), 75 nM BSA (2.5 μg, 5 μL of 0.5 mg/mL BSA stock), 100 μM total nucleotide concentration (5 μL of various ratios of GDP:GppNHp from 10 mM stock solutions), 10 mM of EDTA (10 μL of 0.5M EDTA pH 8.0), 64 mM of MgCl2 (16 μL of 2M MgCl2 stock), 3 μM of His6-MBP-Raf-1-RBDwitt (80 μg, 18.3 μL of 4.38 mg/mL stock of His6-MBP-Raf-1-RBDwitt), and Raf Pull Down Buffer to volume (25 mM Tris (pH 7.2), 150 mM NaCl, 5 mM MgCl2, 1% NP-40, 5% glycerol, 20 mM imidazole). Prior to initiating the EDTA catalyzed nucleotide exchange, the Ras, BSA, nucleotide, and Raf Pull Down Buffer were mixed by pipette on ice. To each tube, the EDTA was added, sample was inverted X 3, and then placed in a pre-warmed tube rack at 30° C. The exchange was allowed to occur at 30° C. for 15 minutes, inverting each tube X 3 every 5 minutes. Once the 15 minutes of exchange was complete, MgCl2 was added to each tube and inverted X 3 and placed on ice for 15 minutes. During the quenching on ice, add 100 μL Ni-NTA slurry (Qiagen) to a cellulose acetate spin cup and spin at 5,000 rpm on a tabletop centrifuge for 30 seconds. Wash the beads with 400 μL of Raf Pull Down Buffer to wash away bead storage buffer. Before adding the beads and His6-tagged Raf-1-RBDwitt, take a 10 μL sample as a loading control and quench it with 5 μL 5×SDS loading buffer. To each spin cup filled with washed Ni-NTA beads, add the quenched EDTA catalyzed exchange reaction and the His6-tagged Raf-1-RBDwitt. Seal the spin cup with parafilm and let rotate at 4° C. for 1 h. After mixing, centrifuge the sample for 30 seconds at 5,000 rpm. Toss flow through. Wash the beads×5 with 400 μL of Raf Pull Down Buffer. After last wash, centrifuge one last time to remove any excess buffer stuck to the beads. To each cup, add 50 μL of 5×SDS loading buffer and mix by vortexing. Let the buffer sit on the beads for 5 minutes and then elute into a fresh tube by centrifuging at 5000 rpm for 1.5 minutes. Load 10 μL of each loading control sample and 25 μL of each eluted pull down onto a SDS-PAGE gel and transfer to a nitrocellulose blot for Western Blot analysis. Block with 5% BSA TBS buffer and then blot with pan Ras primary antibody at a 1:500 dilution in 5% BSA in TBST (Cell Signaling #3965). Blots were read out using LICOR compatible secondary antibodies and quantified. Signal from each GDP-only (i.e. 0% GppNHp) exchange was subtracted as background from the 20%, 50%, and 66% GppNHp pull-down signals for each protein construct. The signal for the GppNHp only lane (i.e. 100% GppNHp) was normalized to 1 and all other signals were made relative to this band within each protein construct tested.

In the case of `COc1ccc(-n2ncc(C(=O)NCCCSSCCN(C)C)c2C(F)(F)F)cc1` [Compound 2C07, N-(3-((2-(dimethylamino)ethyl)disulfanyl)propyl)-1-(4-methoxyphenyl)-5-(trifluoromethyl)-1H-pyrazole-4-carboxamide], the Raf-1-RBD binding [1] is reported as “does not inhibit Raf binding; also recorded: permits Raf-1-RBD binding”, the SOS binding [2] is reported as “inhibits SOS binding” and the “Normalized Average (Nucleotide Exchange PD Assay)” value (H-Ras(M72C) GDP; H-Ras(M72C) 2C07, GppNHp only, normalized to 1) is reported as 1.00. For the same compound, the “Normalized Average (Nucleotide Exchange PD Assay)” value (H-Ras(M72C) GDP; H-Ras(M72C) 2C07, GTP:GDP 0, background subtracted) was 0.00, the “Normalized Average (Nucleotide Exchange PD Assay)” value (H-Ras(M72C) GDP; H-Ras(M72C) 2C07, GTP:GDP 0.2, relative to GppNHp-only signal) was 0.03 and the “Normalized Average (Nucleotide Exchange PD Assay)” value (H-Ras(M72C) GDP; H-Ras(M72C) 2C07, GTP:GDP 0.5, relative to GppNHp-only signal) was 0.12. The “Normalized Average (Nucleotide Exchange PD Assay)” value (H-Ras(M72C) GDP; H-Ras(M72C) 2C07, GTP:GDP 0.67, relative to GppNHp-only signal) was 0.13 and the “nucleotide preference of 2C07 bound Ras” value (H-Ras(M72C) GDP; varying ratios of GDP:GppNHp, EDTA catalyzed exchange) was “nucleotide preference for GDP over GppNHp”.
